Values quoted from earlier work as cited in patent US11167002B2, “Pharmaceutical composition for the treatment of malignant neoplasms including sarcoma, cancers of liver, lung, bladder, blood and cervical, treatment of infectious diseases and type 2 diabetes” (priority 2019, dated 2021).

Columns and labels:
[1] = test system: Gram-negative and Gram-positive bacteria, including multidrug-resistant enterotoxigenic strains of Escherichia coli; details: allicin in pure form
[2] = allicin in pure form
Candida albicans = details: allicin in pure form
[3] = test system: Entamoeba histolytica and Giardia lamblia; details: allicin in pure form

In the case of `C=CCS[S+]([O-])CC=C` (stereo not shown) [Allicin], the antibacterial activity [1] is given as “antibacterial activity”, the antiviral activity [2] is given as “antiviral activity” and the antifungal activity (Candida albicans) is given as “antifungal activity”. The antiparasitic activity [3] was “antiparasitic activity”.
